Experimental data from patent US20150225369A1, “DDR2 INHIBITORS FOR THE TREATMENT OF OSTEOARTHRITIS” (Merck Patent GmbH, priority 2012, published 2015).
pIC50: −log10 of the molar value.

Biological target: T1, His-tagged human recombinant DDR-2 kinase domain (His-TEV-DDR2 467-855 aa) (Homo sapiens, UniProt Q16832)
T1 construct: His-TEV-DDR2 467-855 aa
T1 sequence (Q16832 467-855): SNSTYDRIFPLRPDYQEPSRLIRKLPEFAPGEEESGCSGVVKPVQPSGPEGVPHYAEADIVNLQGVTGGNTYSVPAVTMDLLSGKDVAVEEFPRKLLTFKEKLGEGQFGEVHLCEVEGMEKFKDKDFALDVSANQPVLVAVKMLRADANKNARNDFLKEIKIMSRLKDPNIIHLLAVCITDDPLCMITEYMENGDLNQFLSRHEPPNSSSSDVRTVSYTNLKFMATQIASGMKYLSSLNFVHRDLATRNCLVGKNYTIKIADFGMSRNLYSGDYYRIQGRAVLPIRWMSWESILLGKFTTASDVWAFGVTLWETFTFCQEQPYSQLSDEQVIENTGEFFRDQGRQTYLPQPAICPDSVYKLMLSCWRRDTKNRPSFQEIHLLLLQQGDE
Assay: Autophosphorylation assay for biochemical activity testing of DDR2 (HTRF)
Experimental: The autophosphorylation assay was run in two steps: the enzymatic reaction in which His-tagged DDR2 with ATP as co-substrate phosphorylates itself and the detection reaction where a time resolved FRET between XL665® labelled anti-6His antibody bound to the His-tag of the enzyme and cryptate labelled anti-phospho-Tyrosine-antibody (PT66) bound the phosphorylated Tyrosine residue of DDR2 was analysed. The autophosphorylation activity was detectable directly via the increase in HTRF signal.
The autophosphorylation assay was performed as 1536 well or 384 well HTRF® (Cisbio, Codolet, France) assay format in Greiner low volume medium binding 384-well microtiter plates and was used for high throughput screen. […] The ratio of the emission signals was determined. The full value used was the inhibitor-free reaction.

[1] = biochemical DDR2 autophosphorylation
[2] = 4 nM DDR2 kinase domain, 150 μM ATP, 150 min at 22° C.

| SMILES | pIC50 [1] | further results |
| --- | --- | --- |
| CNC(=O)c1cc(Oc2ccc(CNC(=O)Nc3cc(C(F)(F)F)ccc3OCCN(C)C)cc2)ccn1 [compound 77, 4-(4-{3-[2-(2-Dimethylamino-ethoxy)-5-trifluoromethyl-phenyl]-ureidomethyl}-phenoxy)-pyridine-2-carboxylic acid methylamide] | 7.11 | – |
| CNC(=O)c1cc(Oc2ccc(CNC(=O)Nc3cc(C(F)(F)F)ccc3OCCOC)cc2C)ccn1 [compound 168, 4-(4-{3-[2-(2-Methoxy-ethoxy)-5-trifluoromethyl-phenyl]-ureidomethyl}-2-methyl-phenoxy)-pyridine-2-carboxylic acid methylamide] | 6.89 | – |
| CNC(=O)c1cc(Oc2ccc(CNC(=O)Nc3cc(C(F)(F)F)c(Cl)cc3OCCN(C)C)cc2C)ccn1 [compound 152, 4-(4-{3-[4-Chloro-2-(2-dimethylamino-ethoxy)-5-trifluoromethyl-phenyl]-ureidomethyl}-2-methyl-phenoxy)-pyridine-2-carboxylic acid methylamide] | 7.60 | – |
| O=C(NCc1ccc(Oc2ccncc2)cc1)Nc1cc(Cl)ccc1Cl [compound 10] | 6.57 | – |
| CNC(=O)c1cc(Oc2ccc(CNC(=O)Nc3cc(C)c(Cl)cc3OCCN3CCCC3)cc2)ccn1 [compound 116, 4-(4-{3-[4-Chloro-5-methyl-2-(2-pyrrolidin-1-yl-ethoxy)-phenyl]-ureidomethyl}-phenoxy)-pyridine-2-carboxylic acid methylamide] | 6.39 | – |
| CNC(=O)c1cc(Oc2ccc(CNC(=O)Nc3ccccc3OC)cc2)ccn1 [compound 14] | 5.72 | – |
| CNC(=O)c1cc(Oc2ccc(CNC(=O)Nc3cc(C(F)(F)F)c(Cl)cc3OC)cc2F)ccn1 [compound 231, 4-{4-[3-(4-Chloro-2-methoxy-5-trifluoromethyl-phenyl)-ureidomethyl]-2-fluoro-phenoxy}-pyridine-2-carboxylic acid methylamide] | 7.00 | – |
| CNC(=O)c1cc(Oc2ccc(CNC(=O)Nc3cc(C(F)(F)F)c(Cl)cc3OCCN)cc2)ccn1 [compound 140, 4-(4-{3-[2-(2-Amino-ethoxy)-4-chloro-5-trifluoromethyl-phenyl]-ureidomethyl}-phenoxy)-pyridine-2-carboxylic acid methylamide] | 6.92 | – |
| CNC(=O)c1cc(Oc2ccc(CCC(=O)Nc3ccc(Cl)c(C(F)(F)F)c3)cc2C)ccn1 [compound 3] | – | pIC50 (Table 6, 4 nM DDR2 kinase domain, 150 μM ATP): 5.80 |
| CCOc1ccc(C(F)(F)F)cc1NC(=O)NCc1ccc(Oc2ccnc(C(=O)NC)c2)c(C)c1 [compound 229, 4-{4-[3-(2-Ethoxy-5-trifluoromethyl-phenyl)-ureidomethyl]-2-methyl-phenoxy}-pyridine-2-carboxylic acid methylamide] | 7.08 | – |
| O=C(NCc1ccc(Oc2ccncc2)cc1)Nc1cccc(OC(F)(F)F)c1 [compound 65, 1-[4-(Pyridin-4-yloxy)-benzyl]-3-(3-trifluoromethoxy-phenyl)-urea] | 7.46 | – |
| O=C(NCc1ccc(Oc2ccncc2)cc1)Nc1ccc(OC(F)(F)F)cc1 [compound 55, 1-[4-(Pyridin-4-yloxy)-benzyl]-3-(4-trifluoromethoxy-phenyl)-urea] | 5.12 | – |
| CNC(=O)c1cc(Oc2ccc(CNC(=O)Nc3cc(C(F)(F)F)c(Cl)cc3OCCN3CCOCC3)cc2)ccn1 [compound 131, 4-(4-{3-[4-Chloro-2-(2-morpholin-4-yl-ethoxy)-5-trifluoromethyl-phenyl]-ureidomethyl}-phenoxy)-pyridine-2-carboxylic acid methylamide] | 7.02 | – |
| CNC(=O)c1cc(Oc2ccc(CNC(=O)Nc3cc(C(F)(F)F)c(Cl)cc3OCCNS(C)(=O)=O)cc2)ccn1 [compound 194, 4-(4-{3-[4-Chloro-2-(2-methanesulfonylamino-ethoxy)-5-trifluoromethyl-phenyl]-ureidomethyl}-phenoxy)-pyridine-2-carboxylic acid methylamide] | 7.19 | – |
| COc1ccc(OC)c(NC(=O)NCc2ccc(Oc3ccncc3)cc2)c1 [compound 15] | 6.36 | – |
| Cc1cccc(NC(=O)NCc2ccc(Oc3ccncc3)cc2)c1 [compound 6] | 6.00 | – |
| CNC(=O)c1cc(Oc2ccc(CNC(=O)Nc3ccccc3)cc2)ccn1 [compound 181, 4-{4-[(3-Phenyl-ureido)-methyl]-phenoxy}-pyridine-2-carboxylic acid methylamide] | 5.31 | – |
| O=C(NCc1ccc(Oc2ccncc2)cc1)Nc1ccccc1Br [compound 48, 1-(2-Bromo-phenyl)-3-[4-(pyridin-4-yloxy)-benzyl]-urea] | ≤ 4.00 | – |

| SMILES | pIC50 [1] | further results |
| --- | --- | --- |
| Cn1cc(C(F)(F)F)cc(NC(=O)NCc2ccc(Oc3ccncc3C(F)(F)F)cc2)c1=O [compound 13] | – | pIC50 [2]: 5.80 |
| CNC(=O)c1cc(Oc2ccc(CNC(=O)Nc3cc(C)c(Cl)cc3OCCN3CCNCC3)cc2)ccn1 [compound 120, 4-(4-{3-[4-Chloro-5-methyl-2-(2-piperazin-1-yl-ethoxy)-phenyl]-ureidomethyl}-phenoxy)-pyridine-2-carboxylic acid methylamide] | 6.75 | – |
| O=C(NCc1ccc(Oc2ccncc2)cc1)Nc1ccc(C(F)(F)F)cc1 [compound 21] | 5.70 | – |
| CNC(=O)c1cc(Oc2ccc(CNC(=O)Nc3ccc(OC)nc3)cc2)ccn1 [compound 17] | – | pIC50 [2]: 5.25 |
| COc1cc(Cl)c(C)cc1NC(=O)NCc1ccc(Oc2ccnc(C(=O)NCCN)c2)cc1 [compound 123, 4-{4-[3-(4-Chloro-2-methoxy-5-methyl-phenyl)-ureidomethyl]-phenoxy}-pyridine-2-carboxylic acid (2-amino-ethyl)-amide] | 5.51 | – |
| CNC(=O)c1cc(Oc2ccc(CNC(=O)Nc3cc(Cl)c(C)cc3OC)cc2C)ccn1 [compound 151, 4-{4-[3-(5-Chloro-2-methoxy-4-methyl-phenyl)-ureidomethyl]-2-methyl-phenoxy}-pyridine-2-carboxylic acid methylamide] | 7.00 | – |
| CCOc1ccc(C(F)(F)F)cc1NC(=O)NCc1ccc(Oc2ccnc(C(=O)NC)c2)cc1 [compound 230, 4-{4-[3-(2-Ethoxy-5-trifluoromethyl-phenyl)-ureidomethyl]-phenoxy}-pyridine-2-carboxylic acid methylamide] | 7.05 | – |
| CNC(=O)c1cc(Oc2ccc(CNC(=O)Nc3cc(C(F)(F)F)ccc3OC)cc2C)ccn1 [compound 102, 4-{4-[3-(2-Methoxy-5-trifluoromethyl-phenyl)-ureidomethyl]-2-methyl-phenoxy}-pyridine-2-carboxylic acid methylamide] | 7.30 | – |
| CNC(=O)c1cc(Oc2ccc(CNC(=O)Nc3ccccn3)cc2)ccn1 [compound 85, 4-{4-[(3-Pyridin-2-yl-ureido)-methyl]-phenoxy}-pyridine-2-carboxylic acid methylamide] | 5.42 | – |
| O=C(NCc1ccc(Oc2ccncc2)cc1)Nc1ccc(Br)c(C(F)(F)F)c1 [compound 64, 1-(4-Bromo-3-trifluoromethyl-phenyl)-3-[4-(pyridin-4-yloxy)-benzyl]-urea] | 5.77 | – |
| CCN(CC)CCOc1ccc(C(F)(F)F)cc1NC(=O)NCc1ccc(Oc2ccnc(C(=O)NC)c2)cc1 [compound 108, 4-(4-{3-[2-(2-Diethylamino-ethoxy)-5-trifluoromethyl-phenyl]-ureidomethyl}-phenoxy)-pyridine-2-carboxylic acid methylamide] | 7.52 | – |
| CNC(=O)c1cc(Oc2ccc(CNC(=O)Nc3cc(C)c(Cl)cc3OCCN3CCOCC3)c(C)c2)ccn1 [compound 133, 4-(4-{3-[4-Chloro-5-methyl-2-(2-morpholin-4-yl-ethoxy)-phenyl]-ureidomethyl}-3-methyl-phenoxy)-pyridine-2-carboxylic acid methylamide] | 5.70 | – |
| CNC(=O)c1cc(Oc2ccc(CNC(=O)Nc3cc(C)c(Cl)cc3OCCN3CCCC3)cc2C)ccn1 [compound 137, 4-(4-{3-[4-Chloro-5-methyl-2-(2-pyrrolidin-1-yl-ethoxy)-phenyl]-ureidomethyl}-2-methyl-phenoxy)-pyridine-2-carboxylic acid methylamide] | 6.85 | – |
| CNC(=O)c1cc(Oc2ccc(CNC(=O)Nc3cc(C)c(Cl)cc3OCCN3CCOCC3)cc2C)ccn1 [compound 138, 4-(4-{3-[4-Chloro-5-methyl-2-(2-morpholin-4-yl-ethoxy)-phenyl]-ureidomethyl}-2-methyl-phenoxy)-pyridine-2-carboxylic acid methylamide] | 6.51 | – |
| CNC(=O)c1cc(Oc2ccc(COC(=O)Nc3cc(C(F)(F)F)ccn3)cc2C)ccn1 [compound 4] | – | pIC50 [2]: 7.39 |
| CNC(=O)c1cc(Oc2ccc(CNC(=O)Nc3ccncc3)cc2)ccn1 [compound 90, 4-{4-[(3-Pyridin-4-yl-ureido)-methyl]-phenoxy}-pyridine-2-carboxylic acid methylamide] | ≤ 4.00 | – |
| Cc1ccccc1NC(=O)NCc1ccc(Oc2ccncc2)cc1 [compound 29] | ≤ 4.00 | – |
| CNC(=O)c1cc(Oc2ccc(CNC(=O)Nc3cc(C)ccn3)cc2)ccn1 [compound 14] | – | pIC50 [2]: 6.24 |
